How the values were obtained:
chronic psoriasis = experiment: Multi-center, double blind study of ointments in mild to moderate chronic psoriasis; type: in vivo, patients; conditions: for percentage of patients healed or showing marked improvement (treatment effective): ointment twice a day for one month, 1% resveratrol, calcipotriol 50 mg/g, or both, 12 patients per group, control 10%
Source text: A prospectic, multi-center, double bind study was effected on patients of both sexes, of age above 18 years, with a clinical diagnosis of mild to moderate chronic psoriasis, with affected areas of at least 100 cm^2, but not above 40% of the total body area. Patients with pustular psoriasis or with psoriasis guttata, those who had received either topical treatment for two weeks before the test or systemic treatment in the 8 weeks before the test, as well as pregnant and nursing women or patients receiving more than 400 IU of vitamin D daily or any other medicament potentially affecting the progress of the disease, were excluded.
Out of 48 patients, 12 were included in the resveratrol-treated group (1% resveratrol ointment), 12 in the control group (ointment with no resveratrol), 12 in a group treated with a Vitamin D derivative (calcipotriol 50 mg/g) and 12 in a group treated with the combination resveratrol/Vitamin D derivative (1% resveratrol/50 mg/g calcipotriol). […] Patients were treated twice a day for one month with the different ointments.
At the end of the treatment, the clinical response was evaluated as “healed”, “marked improvement”, “slight improvement”, “no changes”, “worsening”. Quality life evaluations were carried out before and after the treatment, by using the “psoriasis Disability Index” (PDI) and the “Sickness Impact Profile” (SIP). The PDI questionnaire included 15 questions as follows: daily activities (5 questions), work or school, if applicable, (3 questions), personal relationships, (2 questions), spare time (4 questions), treatment, (1 question). […] The purpose of said questions was to evaluate symptoms and feelings of the patients concerning their psoriasis during the first 4 weeks of treatment.

[1] = tested on: severe disabling exfoliative eczema; experiment: Clinical study of 1% resveratrol ointment in exfoliative eczema (six-area/six-sign score); type: in vivo, patients
Description: Experiments were carried out on patients (n=20) of both sexes, of age above 18 years, suffering from severe disabling exfoliative eczema unresponsive to the current topical treatments.
All patients were subjected to complete blood count and measurements of renal and hepatic functions prior to treatment. Patients who had been systemically treated two months previously with corticoids, antibiotics, psoralenes and other immunosuppressants or with UV were excluded. Patients were supposed not to use any corticoid topically.
Out of 20 patients, 10 were included in the resveratrol-treated group (1% resveratrol ointment) and 10 in the control group (ointment with no resveratrol). […] Patients were divided in two groups and treated twice a day for six months either with the resveratrol-containing ointment or with the placebo ointment (control group).
The progress of the disease was monitored by using the “six-area/six-sign score” method. The severity of the six signs used for monitoring the disease (erythema, pustules, excoriations, dehydration, scaling of the skin and lichenification), was evaluated on a 0-3 score (none, mean, moderate and severe), in each of the six body areas tested (head, neck, hands, elbows, feet, legs and trunk). The severity of itching and of sleep disorders was evaluated on a 0-3 score (none, mean, moderate and severe).

acne vulgaris = experiment: Randomized, double blind study of topical resveratrol (1% cream) in acne vulgaris; type: in vivo, patients; conditions: 1% cream daily for 10 weeks
Description: A randomized, double blind study was carried out in order to evaluate the effectiveness of topical administration of resveratrol in the treatment of acne vulgaris. Patients (n=30) of 15 to 19 years were all suffering from II or III degree acne (according to Pillsbury's classification), with multiple inflammatory lesions (20 to 62) and a number of comedos (28 to 120) on face and forehead. Only subjects who had received no systemic treatment with antibiotics for at least 4 weeks and had used no topical medicaments for 2 weeks before treatment were selected. During treatment with resveratrol, no further topical treatment was allowed. The effectiveness of the therapy was evaluated by comparing the conditions of the lesions before and after the treatment, according to an arbitrary score of 0 to 5 (0=worsening; 1=no changes; 2=slight improvement; 3=modest improvement; 4=good improvement; 5=excellent improvement).
Treatment consisted of daily topical administrations of resveratrol (1% cream) or of the carrier only, for 10 weeks in 30 patients suffering from acne vulgaris. The evaluated parameters were: number of acne lesions and comedos, erythema, seborrhoic skin and skin scaling.

[2] = tested on: neutrophils, circulating cells, cells at the lesion site; experiment: General observations during and after topical treatment with resveratrol; type: in vivo
[3] = end of six months treatment, 10 treated patients

Structure (SMILES) | percentage of patients healed or showing marked improvement (treatment effective) (chronic psoriasis) [%] | mean of the values concerning the different clinical symptoms (six-area/six-sign score) ([1]; 1% resveratrol ointment twice a day, after the first two weeks of treatment, baseline 57.0 (SEM 1.6, n=10)) | body area affected by eczema ([1]; during treatment, baseline 69% on the average) [%] | number of treated patients showing improvements only concerning skin scaling [1, 3] | number of treated patients with significant improvements of all the considered parameters [1, 3] [patients] | mean score for itching (0-3) ([1]; end of the treatment, baseline 2.3) | mean score for sleep disorders (0-3) ([1]; end of the treatment, baseline 2.9) | cases in which effectiveness was due to the reduction of follicle hyperkeratosis (acne vulgaris) [%] | side effects (acne vulgaris) | treated subjects with significant reduction of erythema, number of acne lesions, comedos and scaling (acne vulgaris; control subjects 2%) [%] | reduction in the total PDI score (chronic psoriasis; after treatment, 95% CI 4.4, 8.6, P=0.001, control group 1.7) | neutrophils activity, circulating cells, cells at the lesion site ([2]; after topical treatment) | systemic or topical effects during and after the treatment ([2]; topical use)
C=C1/C(=C\C=C2/CCC[C@]3(C)[C@@H]([C@H](C)/C=C/[C@@H](O)C4CC4)CC[C@@H]23)C[C@@H](O)C[C@@H]1O [Vitamin D derivatives, calcipotriol, reference compound] | 47 |  |  |  |  |  |  |  |  |  |  |  | 
Oc1ccc(/C=C/c2cc(O)cc(O)c2)cc1 [resveratrol, 3,4′,5-trihydroxy-trans-stilbene] | 80 | 21.5 | 27 | two | 8 | 0.6 | 1.0 | 95 | neither systemic nor topical side effects | 96 | 6.5 | no changes of neutrophils activity | neither systemic nor topical effects

From patent US20010056071A1, “Use of resveratrol for the treatment of exfoliative eczema, acne and psoriasis” (priority 2000, published 2001)
